As usually defined, the IC50 is the concentration needed to halve the response being measured. Read a high IC50 as lower potency.

The assay has as its target T1, soybean lipoxygenase (LOX) (Glycine max, UniProt P08170).
T1 construct: gene LOX1.1
T1 sequence (P08170 1-839): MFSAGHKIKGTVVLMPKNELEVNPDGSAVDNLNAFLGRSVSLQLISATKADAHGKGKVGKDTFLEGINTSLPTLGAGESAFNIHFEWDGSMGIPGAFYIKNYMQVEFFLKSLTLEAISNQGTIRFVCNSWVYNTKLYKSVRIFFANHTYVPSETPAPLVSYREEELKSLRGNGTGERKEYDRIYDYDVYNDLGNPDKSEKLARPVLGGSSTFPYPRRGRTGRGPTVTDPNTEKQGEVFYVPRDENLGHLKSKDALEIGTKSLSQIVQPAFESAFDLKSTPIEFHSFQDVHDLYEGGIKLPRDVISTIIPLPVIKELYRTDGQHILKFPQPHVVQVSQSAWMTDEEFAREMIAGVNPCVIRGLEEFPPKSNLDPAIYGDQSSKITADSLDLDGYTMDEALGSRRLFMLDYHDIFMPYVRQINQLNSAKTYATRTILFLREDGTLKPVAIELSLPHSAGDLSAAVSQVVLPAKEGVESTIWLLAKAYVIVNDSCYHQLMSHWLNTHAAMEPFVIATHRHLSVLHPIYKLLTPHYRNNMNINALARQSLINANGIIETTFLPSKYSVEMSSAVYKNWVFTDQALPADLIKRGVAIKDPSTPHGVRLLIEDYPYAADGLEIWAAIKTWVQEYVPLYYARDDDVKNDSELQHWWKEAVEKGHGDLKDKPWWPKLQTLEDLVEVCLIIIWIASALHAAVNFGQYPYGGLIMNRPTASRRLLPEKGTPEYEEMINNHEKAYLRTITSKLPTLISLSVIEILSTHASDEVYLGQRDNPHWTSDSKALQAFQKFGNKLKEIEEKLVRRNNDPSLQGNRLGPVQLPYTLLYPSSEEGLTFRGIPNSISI
The assay can be described thus: soybean LOX inhibition, linoleate oxidation monitored at […] nm. The format is biochemical.
As to `C/[N+]([O-])=C/c1ccc(-c2ccccc2)cc1` [compound 1, (Z)-1-([1,1′-Biphenyl]-4-yl)-N-methylmethanimine oxide], it took 100 µM to reach half-maximal inhibition (IC50). `[O-]/[N+](=C\c1ccc(-c2ccccc2)cc1)Cc1ccccc1` [compound 3, (Z)-1-([1,1′-Biphenyl]-4-yl)-N-benzylmethanimine oxide] came in with an IC50 of 57.5 µM. Compared with the last compound, the IC50 is about 1.7-fold lower.

Compound `CC(C)(C)/[N+]([O-])=C/c1ccc(-c2ccc(/C=[N+](\[O-])C(C)(C)C)cc2)cc1` [compound 5, (1Z,1′Z)-1,1′-([1,1′-Biphenyl]-4,4′-diyl)bis(N-tert-butylmethanimineoxide)] yielded an IC50 of 100 µM.

Values taken from paper PMC7926640, “Synthesis, Neuroprotection, and Antioxidant Activity of 1,1′-Biphenylnitrones as α-Phenyl-N-tert-butylnitrone Analogues in In Vitro Ischemia Models” (Molecules, 2021).
